Each molecule was assayed on Clonic Seizures Caused by Pentylenetetrazole in Rats (assay: Protection against clonic seizures caused by pentylenetetrazole in rats). Conditions: Rattus norvegicus; dose 25.0 mg/kg, oral or i.p.; pentylenetetrazole 23 mg/kg i.v. at 30 or 60 min; read-out: % of Rats Protected.
Type: in vivo
Description: The anti-anxiety and anticonvulsant properties of the novel compounds of the present invention have been established in a test which indicates anxiolytic and antiepileptic activity by the measure of protection from convulsions resulting from the administration of pentylenetetrazole. Single or graded dose levels of the test compounds were administered orally or intraperitoneally in a 2% starch vehicle, containing 0.5% v/v polyethylene glycol and one drop of Polysorbate 80 to groups of at least 4 rats. At 30 or 60 minutes, the rats were treated intravenously with pentylenetetrazole at a dose of 23 mg/kg of body weight. This dose is estimated to cause clonic seizures in 99% of unprotected rats. It has been reported [R. T. Hill and D. H. Tedeschi, "Animal Testing and Screening Procedures in Evaluating Psychotropic Drugs" in "An Introduction to Psychopharmacology", Eds. R. R. Rech and K. E. Moore, Raven Press, New York, pp 237-288 (1971)] that there is a high degree of correlation between antagonism of pentylenetetrazole seizures in rats and anti-anxietyor anticonvulsant effects in higher warm-blooded animals.

SMILES	responders at 25 mg/kg [%]
O=C(c1ccc(F)cc1)c1cnn2c(-c3ccccc3F)ccnc12 [(4-fluorophenyl)[7-(2-fluorophenyl)pyrazolo[1,5-a]pyrimidin-3-yl]methanone]	50
O=C(c1cccs1)c1cnn2c(-c3cccnc3)ccnc12 [[7-(3-pyridinyl)pyrazolo[1,5-a]pyrimidin-3-yl]-2-thienyl-methanone]	75
Cc1cnc2c(C(=O)c3ccccc3)cnn2c1-c1ccccc1 [(6-methyl-7-phenylpyrazolo[1,5-a]pyrimidin-3-yl)phenyl-methanone]	25
Cc1cc(-c2ccc(Cl)c(Cl)c2)n2ncc(C(=O)c3ccccc3)c2n1 [[7-(3,4-dichlorophenyl)-5-methylpyrazolo[1,5-a]pyrimidin-3-yl]phenyl-methanone]	25
COc1ccc(-c2cc(C)nc3c(C(=O)c4ccc(F)cc4)cnn23)cc1OC [[7-(3,4-dimethoxyphenyl)-5-methylpyrazolo[1,5-a]pyrimidin-3-yl](4-fluorophenyl)methanone]	25
Cc1cccc(C(=O)c2cnn3c(-c4cccc(C(F)(F)F)c4)ccnc23)c1 [(3-methylphenyl)[7-[3-(trifluoromethyl)phenyl]pyrazolo[1,5-a]pyrimidin-3-yl]methanone]	25
Cc1nn2c(-c3cccnc3)ccnc2c1C(=O)c1ccccc1 [[2-methyl-7-(3-pyridinyl)pyrazolo[1,5-a]pyrimidin-3-yl]phenyl-methanone]	50
Cc1cccc(C(=O)c2cnn3c(-c4cccc(C)c4)ccnc23)c1 [(3-methylphenyl)[7-(3-methylphenyl)pyrazolo[1,5-a]pyrimidin-3-yl]methanone]	25

What follows are molecules tested on Brain-Specific Receptors of Rats (assay: Inhibition of the binding of 3H-benzodiazepine to brain-specific receptors of rats). Conditions: 3H-diazepam 1.5 nM or 3H-flunitrazepam 1.0 nM; rat cortex P2 fraction; test concentration not given.
Set-up: species or system rat (Wistar)

SMILES	% Inhibition [%]
O=C(c1ccc(F)cc1)c1cnn2c(-c3ccccc3F)ccnc12 [(4-fluorophenyl)[7-(2-fluorophenyl)pyrazolo[1,5-a]pyrimidin-3-yl]methanone]	22
CSc1cccc(-c2ccnc3c(C(=O)c4ccccc4)cnn23)c1 [[7-[3-(methylthio)phenyl]pyrazolo[1,5-a]pyrimidin-3-yl]phenyl-methanone]	98
O=C(c1cccs1)c1cnn2c(-c3cccnc3)ccnc12 [[7-(3-pyridinyl)pyrazolo[1,5-a]pyrimidin-3-yl]-2-thienyl-methanone]	82
O=C(c1ccc(Cl)cc1)c1cnn2c(-c3cccnc3)ccnc12 [(4-chlorophenyl)[7-(3-pyridinyl)pyrazolo[1,5-a]pyrimidin-3-yl]methanone]	87
Cc1cnc2c(C(=O)c3ccccc3)cnn2c1-c1ccccc1 [(6-methyl-7-phenylpyrazolo[1,5-a]pyrimidin-3-yl)phenyl-methanone]	24
O=C(c1ccccc1)c1cnn2c(-c3ccsc3)ccnc12 [phenyl[7-(3-thienyl)pyrazolo[1,5-a]pyrimidin-3-yl]methanone]	96
Cc1cc(-c2ccc(Cl)c(Cl)c2)n2ncc(C(=O)c3ccccc3)c2n1 [[7-(3,4-dichlorophenyl)-5-methylpyrazolo[1,5-a]pyrimidin-3-yl]phenyl-methanone]	97
O=C(c1cccc(C(F)(F)F)c1)c1cnn2c(-c3cccc(C(F)(F)F)c3)ccnc12 [[3-(trifluoromethyl)phenyl][7-[3-(trifluoromethyl)phenyl]pyrazolo[1,5-a]pyrimidin-3-yl]methanone]	56
O=C(c1ccccc1)c1cnn2c(-c3cc(Cl)ccc3Cl)ccnc12 [[7-(2,5-dichlorophenyl)pyrazolo[1,5-a]pyrimidin-3-yl]phenyl-methanone]	21
Cc1ccc(C(=O)c2cnn3c(-c4ccsc4)ccnc23)cc1 [(4-methylphenyl)[7-(3-thienyl)pyrazolo[1,5-a]pyrimidin-3-yl]methanone]	58
COc1ccc(-c2cc(C)nc3c(C(=O)c4ccc(F)cc4)cnn23)cc1OC [[7-(3,4-dimethoxyphenyl)-5-methylpyrazolo[1,5-a]pyrimidin-3-yl](4-fluorophenyl)methanone]	48
O=C(c1cccc(C(F)(F)F)c1)c1cnn2c(-c3ccccc3)ccnc12 [(7-phenylpyrazolo[1,5-a]pyrimidin-3-yl)[3-(trifluoromethyl)phenyl]methanone]	19
Cc1ccc(C(=O)c2cnn3c(-c4ccccn4)ccnc23)cc1 [(4-methylphenyl)[7-(2-pyridinyl)pyrazolo[1,5-a]pyrimidin-3-yl]methanone]	13
O=C(c1ccc(F)cc1)c1cnn2c(-c3cc[n+]([O-])cc3)ccnc12 [(4-Fluorophenyl)[7-(4-pyridinyl)pyrazolo[1,5-a]pyrimidin-3-yl]methanone, pyridine-1-oxide]	15
O=C(c1ccccc1)c1cnn2c(-c3cc(C(F)(F)F)ccc3Cl)ccnc12 [[7-[2-chloro-5-(trifluoromethyl)phenyl]pyrazolo[1,5-a]pyrimidin-3-yl]phenyl-methanone]	86
O=C(c1ccccc1)c1cnn2c(-c3ccccn3)ccnc12 [phenyl[7-(2-pyridinyl)pyrazolo[1,5-a]pyrimidin-3-yl]methanone]	30
CC(=O)Nc1ccc(-c2ccnc3c(C(=O)c4ccccc4)cnn23)cc1 [N-[4-(3-Benzoylpyrazolo[1,5-a]pyrimidin-7-yl)phenyl]acetamide]	33
O=C(c1cccc(F)c1)c1cnn2c(-c3cccc(C(F)(F)F)c3)ccnc12 [(3-fluorophenyl)[7-[3-(trifluoromethyl)phenyl]pyrazolo[1,5-a]pyrimidin-3-yl]methanone]	96
Cc1cc(-c2ccncc2)n2ncc(C(=O)c3ccccc3)c2n1 [[5-Methyl-7-(4-pyridinyl)pyrazolo[1,5-a]pyrimidin-3-yl]phenyl-methanone]	93
O=C(c1ccccn1)c1cnn2c(-c3ccccn3)ccnc12 [2-pyridinyl[7-(2-pyridinyl)pyrazolo[1,5-a]pyrimidin-3-yl]methanone]	77
Cc1nn2c(-c3cccc(C(F)(F)F)c3)ccnc2c1C(=O)c1ccccc1 [(2-methyl-7-[3-(trifluoromethyl)phenyl]pyrazolo[1,5-a]pyrimidin-3-yl)phenyl-methanone]	54
O=C(c1ccccc1)c1cnn2c(-c3cccc(Cl)c3)ccnc12 [[7-(3-chlorophenyl)pyrazolo[1,5-a]pyrimidin-3-yl]phenyl-methanone]	95

SMILES	% Inhibition [%]
Cc1cccc(C(=O)c2cnn3c(-c4cccc(C(F)(F)F)c4)ccnc23)c1 [(3-methylphenyl)[7-[3-(trifluoromethyl)phenyl]pyrazolo[1,5-a]pyrimidin-3-yl]methanone]	67
CC(=O)Nc1cccc(-c2ccnc3c(C(=O)c4ccccc4)cnn23)c1 [N--[3-(3-benzoylpyrazolo[1,5-a]pyrimidin-7-yl)phenyl]acetamide]	65
Cc1nn2c(-c3cccnc3)ccnc2c1C(=O)c1ccccc1 [[2-methyl-7-(3-pyridinyl)pyrazolo[1,5-a]pyrimidin-3-yl]phenyl-methanone]	52
O=C(c1cccs1)c1cnn2c(-c3ccncc3)ccnc12 [[7-(4-pyridinyl)pyrazolo[1,5-a]pyrimidin-3-yl]-2-thienyl-methanone]	62
O=C(c1ccccc1)c1cnn2c(-c3ccccc3)ccnc12 [Phenyl(7-phenylpyrazolo[1,5-a]pyrimidin-3-yl)methanone]	55
O=C(c1ccccc1)c1cnn2c(-c3cccc(F)c3)ccnc12 [[7-(3-fluorophenyl)pyrazolo[1,5-a]pyrimidin-3-yl]phenyl-methanone]	88
O=C(c1ccco1)c1cnn2c(-c3ccccc3F)ccnc12 [[7-(2-fluorophenyl)pyrazolo[1,5-a]pyrimidin-3-yl]-2-furanyl-methanone]	34
Cc1cc(-c2cccnc2)n2ncc(C(=O)c3ccc(F)cc3)c2n1 [(4-fluorophenyl)[5-methyl-7-(3-pyridinyl)pyrazolo[1,5-a]pyrimidin-3-yl]methanone]	25
O=C(c1cccc(C(F)(F)F)c1)c1cnn2c(-c3ccncc3)ccnc12 [[7-(4-pyridinyl)pyrazolo[1,5-a]pyrimidin-3-yl][3-(trifluoromethyl)phenyl]methanone]	99
O=C(c1ccccc1)c1cnn2c(-c3cccs3)ccnc12 [phenyl[7-(2-thienyl)pyrazolo[1,5-a]pyrimidin-3-yl]methanone]	96
COc1cc(OC)cc(C(=O)c2cnn3c(-c4cccnc4)ccnc23)c1 [(3,5-dimethoxyphenyl)[7-(3-pyridinyl)pyrazolo[1,5-a]pyrimidin-3-yl]methanone]	30
O=C(c1ccccn1)c1cnn2c(-c3cccs3)ccnc12 [2-pyridinyl[7-(2-thienyl)pyrazolo[1,5-a]pyrimidin-3-yl]methanone]	24
Cc1cc(-c2cccnc2)n2ncc(C(=O)c3ccccc3)c2n1 [[5-Methyl-7-(3-pyridinyl)pyrazolo[1,5-a]pyrimidin-3-yl]phenyl-methanone]	15
Cc1cc(-c2cccc(C(F)(F)F)c2)n2ncc(C(=O)c3ccccc3)c2n1 [[5-Methyl-7-[3-(trifluoromethyl)phenyl]pyrazolo[1,5-a]pyrimidin-3-yl]phenyl-methanone]	27
N#Cc1ccc(-c2ccnc3c(C(=O)c4ccccc4)cnn23)cc1 [4-(3-benzoylpyrazolo[1,5-a]pyrimidin-7-yl)benzonitrile]	10
Cc1cccc(C(=O)c2cnn3c(-c4cccc(C)c4)ccnc23)c1 [(3-methylphenyl)[7-(3-methylphenyl)pyrazolo[1,5-a]pyrimidin-3-yl]methanone]	75
O=C(c1ccc(F)cc1)c1cnn2c(-c3ccccc3)ccnc12 [(4-fluorophenyl)(7-phenylpyrazolo[1,5-a]pyrimidin-3-yl)methanone]	42
O=C(c1cccc(C(F)(F)F)c1)c1cnn2c(-c3ccco3)ccnc12 [[7-(2-furanyl)pyrazolo[1,5-a]pyrimidin-3-yl][3-(trifluoromethyl)phenyl]methanone]	36
O=C(c1cccc(F)c1)c1cnn2c(-c3ccc(F)cc3)ccnc12 [(3-fluorophenyl)[7-(4-fluorophenyl)pyrazolo[1,5-a]pyrimidin-3-yl]methanone]	52
COc1cc(-c2ccnc3c(C(=O)c4ccccc4)cnn23)cc(OC)c1OC [phenyl[7-(3,4,5-trimethoxyphenyl)pyrazolo[1,5-a]pyrimidin-3-yl]methanone]	24
O=C(c1ccco1)c1cnn2c(-c3ccccc3)ccnc12 [2-Furanyl(7-phenylpyrazolo[1,5-a]pyrimidin-3-yl)methanone]	81
O=C(c1ccc(Cl)cc1)c1cnn2c(-c3ccc(F)cc3)ccnc12 [(4-chlorophenyl)[7-(4-fluorophenyl)pyrazolo[1,5-a]pyrimidin-3-yl]methanone]	16

From patent US4521422A, “Aryl and heteroaryl[7-(aryl and heteroaryl)pyrazolo[1,5-a]pyrimidin-3-yl]methanones” (American Cyanamid Company, priority 1984, dated 1985)
